Laboratory results published in patent US9828576B2, “Cell culture” (National University of Singapore, priority 2012, dated 2017).
Entries after “also recorded” stand apart in the source; their conditions may differ.

Test system: bile canaliculi of hepatocyte couplets
Assay: Bile canaliculi (BC) morphology of hepatocyte couplets in F/F microwells after drug treatment (F-actin staining, confocal imaging)
Assay type: cell-based, rat
Details: for degree of folding r of BC / vertical aspect ratio i of BC: F/F microwells with drug, compared with control F/F microwells (FIG. 6D); for BC morphology: hepatocytes in F/F microwells
Method: For control, hepatocytes cultured for 48 hours in microwells were fixed in 4% para-formaldehyde (PFA) for 30 minutes. For ±Blebbistatin (Merck, 203390) or Y27632 (Sigma, Y0503) treatments, drugs were added 4 h before fixation, while soluble RGD (Sigma, G5646) was incubated with hepatocytes overnight. After fixation, the cells were rinsed by PBS and permeabilized for 30 min in TBST (0.2% Triton-X in TBS). The permeabilized cells were blocked with 1% BSA in TBST for 4 h and incubated overnight with pan-Cadherin antibody (sigma, C1821) and anti-ZO-1 antibody (life technology, 61-7300) at 4° C. as instructed in manuals. After rinsed with TBST, the cells were incubated in secondary antibodies (Life Technology, A10040 and A-31571) and phalloidin-alexa 488 (Life Technology, A12379) for 1 h in dark at room temperature. After rinsed with TBST again and incubated shortly with DAPI (Sigma, D9564), cells were mounted in mounting medium (DAKO, S3023). 3D stack of confocal microscopy images were acquired with 100×NA1.4 oil lens on a Nikon A1R Confocal Microscope.
The selected slices of image stacks were reconstructed as maximum intensity projection or orthogonal section view. Manual segmentation was applied based on F-actin signal, because F-actin provides a better definition of BC boundaries, compared with ZO-1 (FIG. 11). Several features, such as parameter, thickness, horizontal spin size and area of bile canaliculi, were extracted subsequently.
When cells adhered to the side of microwell only (F/P configuration), hepatocytes positioned side by side (FIG. 5C, 5D). […] To confirm the importance of cell-ECM adhesion in obtaining flat tubular BC, we treated the hepatocytes in F/F microwells on day 1 with soluble RGD peptides (250 μM, overnight) that antagonized the integrin-mediated cell-ECM adhesion while keeping the chemical signalling unperturbed. Indeed, as cells detached from the microwells, their BC rounded up to be morphologically equivalent to those observed in the P/F case (FIG. 6A).
Therefore, we tested whether actomyosin contractility was required for the differential control of BC morphology by the spatial organization of cell-ECM adhesion. […] The resulting morphologies were similar to those obtained in the P/F configuration (FIG. 6B, 6C).
The BC morphologies in different conditions were quantitatively assessed by two dimensionless parameters: the degree of folding and vertical aspect ratio. The degree of folding r=P^2/(4πA) was evaluated by measuring the ratio of the BC projected perimeter P to the projected area A. This morphological index r ranges from 1 (circle) upward (folded tubular structures). The vertical aspect ratio i was calculated as the ratio of the BC maximal height over maximal elongation in the XY plane. Higher vertical aspect ratio represents a thicker BC.

Compound	degree of folding r of BC	vertical aspect ratio i of BC	BC morphology (Y27632 10 μM for 4 hours)	BC morphology (blebbistatin 100 μM for 4 hours)	BC morphology (blebbistatin 100 μM for 4 hours, listed as blebbistatin +/−)
C[C@@H](N)[C@H]1CC[C@H](C(=O)Nc2ccncc2)CC1 [Y27632]	lower	higher	rounded up; also recorded: converted tubular BC into spherical ones		
Cc1ccc2c(c1)C(=O)C1(O)CCN(c3ccccc3)C1=N2 (stereo not shown) [blebbistatin]	lower	higher		rounded up	converted tubular BC into spherical ones
